Consider four compounds from patent publication US20230285387A1, “COMBINATION OF MORPHINAN COMPOUNDS AND ANTI[…] THE TREATMENT OF PS[…], NEUROLOGICAL DISEASES, I[…] CHRONIC PAIN AND BRAIN INJURY” (Concert Pharmaceuticals, Inc., priority 2008, published 2023).

Counter-ions that a name gives are not always drawn.

Series [1] deals with T1, CYP2D6 (Homo sapiens, UniProt P10635).
T1 construct: purchased GenTest (Woburn, Mass., USA)
Put plainly: Metabolic stability in CYP2D6 SUPERSOMES
The series is classed as in vitro ADME. The settings on record: human, recombinant human CYP2D6 SUPERSOMES; 1 μM test compound, 2 mM NADPH, 0.1 M potassium phosphate buffer pH 7.4, 37° C., 0-30 minutes, parent remaining by LC-MS/MS; read-out: t1/2 ± SD (calculated in vitro half-life in SUPERSOMES). On the procedure:
(§1) Human CYP2D6 SUPERSOMES™ were purchased from GenTest (Woburn, Mass., USA). […] The 7.5 mM stock solutions were diluted to 50 μM in acetonitrile (ACN). The […] CYP2D6 supersomes were diluted to 62.5 μmol/mL in 0.1 M potassium phosphate buffer, pH 7.4, containing 3 mM MgCl2. The diluted SUPERSOMES™ were added to wells of a 96-well deep-well polypropylene plate in triplicate. 10 μL of the 50 μM test compound was added to the supersomes and the mixture was pre-warmed for 10 minutes. Reactions were initiated by addition of pre-warmed NADPH solution. The final reaction volume was 0.5 mL and contained 50 μmol/mL CYP2D6 SUPERSOMES™, 1 μM test compound, and 2 mM NADPH in 0.1 M potassium phosphate buffer, pH 7.4, and 3 mM MgCl2. The reaction mixtures were incubated at 37° C. and 50 μL aliquots were removed at 0, 5, 10, 20, and 30 minutes and added to shallow-well 96-well plates which contained 50 μL of ice-cold ACN with internal standard to stop the reactions. The plates were stored at 4° C. for 20 minutes after which 100 μL of water was added to the wells of the plate before centrifugation to pellet precipitated proteins. Supernatants were transferred to another 96-well plate and analyzed for amounts of parent remaining by LC-MS/MS using an Applied Bio-systems API 4000 mass spectrometer.
(§2) The in vitro half-life (t1/2) for each of the test compounds was calculated from the slopes of the linear regression of % parent remaining (ln) vs incubation time relationship: in vitro t1/2=0.693/k, where k=−[slope of linear regression of % parent remaining(ln) vs incubation time]. Data analysis was performed using Microsoft Excel Software.

Series [2] addresses T2, Human CYP2D6 SUPERSOMES (Homo sapiens, UniProt P10635).
T2 construct: purchased GenTest (Woburn, Mass., USA)
Put plainly: Metabolic stability in CYP2D6 SUPERSOMES
Format: in vitro ADME. The settings on record: 1 μM test compound, 2 mM NADPH, 0.1 M potassium phosphate buffer pH 7.4, 37° C., 0-30 minutes, parent remaining by LC-MS/MS. On the procedure: as §1, §2

T1 sequence (P10635 whole entry): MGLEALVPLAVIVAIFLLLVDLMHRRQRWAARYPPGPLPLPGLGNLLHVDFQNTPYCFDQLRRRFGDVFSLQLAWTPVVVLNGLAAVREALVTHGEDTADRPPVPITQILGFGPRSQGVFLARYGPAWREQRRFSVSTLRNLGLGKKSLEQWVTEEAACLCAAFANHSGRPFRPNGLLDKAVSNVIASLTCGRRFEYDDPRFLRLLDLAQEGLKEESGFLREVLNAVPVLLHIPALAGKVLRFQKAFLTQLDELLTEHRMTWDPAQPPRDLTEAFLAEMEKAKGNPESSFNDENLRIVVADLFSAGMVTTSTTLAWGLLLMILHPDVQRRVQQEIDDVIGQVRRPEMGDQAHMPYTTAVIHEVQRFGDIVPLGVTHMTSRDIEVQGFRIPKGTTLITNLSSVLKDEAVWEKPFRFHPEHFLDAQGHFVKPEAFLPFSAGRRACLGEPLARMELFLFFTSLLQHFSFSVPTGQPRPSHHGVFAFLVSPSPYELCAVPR
T2 sequence (P10635 whole entry): as above

Take `[2H]C([2H])([2H])C([2H])([2H])Oc1ccc2c(c1)[C@]13CCCC[C@@H]1C(C2)N(C)CC3` (single isomer, unassigned; (+)) [Compound 104, (+)-3-(Ethoxy-d5)-17-methyl-(9α,13α,14α)-morphinan hydrochloride]: in series [1], the half-life at 1 μM was 49.1 ± 4.1 min. Still for that read-out and setting: for `[2H]C([2H])([2H])C([2H])(Oc1ccc2c(c1)[C@]13CCCC[C@@H]1C(C2)N(C)CC3)C([2H])([2H])[2H]` (single isomer, unassigned; (+)) [Compound 106, (+)-3-(Isopropoxy-d7)-17-methyl-(9α,13α,14α)-morphinan] the value was 36 ± 2.8 min. In the case of `[2H]C([2H])([2H])N1CC[C@@]23CCCC[C@@H]2[C@@H]1Cc1ccc(OC([2H])(C([2H])([2H])[2H])C([2H])([2H])[2H])cc13` [Compound 102, (+)-3-(Isopropoxy-d7)-17-(methyl-d3)-(9α,13α,14α)-morphinan], the “t1/2 ± SD (calculated in vitro half-life in SUPERSOMES)” value in series [2] is on record as 39.0 ± 1.9 min. In the case of `[2H]C([2H])([2H])Oc1ccc2c(c1)[C@]13CCCC[C@@H]1[C@H](C2)N(C([2H])([2H])[2H])CC3` [Test Compound, (+)-3-d3-methoxy-17-d3-methyl-(9α,13α,14α)-morphinan], in series [1], the half-life at 1 μM is 5.6 ± 1.5 min.
